Measurements: patent publication US12600696B2 (XENIOPRO GMBH, priority 2017, dated 2026)

Test system: Notch signaling (hNotch1ΔE, human Notch1 receptor) in HeLa cells
Experiment: Notch reporter assay (luciferase luminescence readout in transfected HeLa cells)
Assay type: cell-based
Details: 20 hours; for fold induction at 10 µM: Homo sapiens, relative to DMSO baseline level of 1.0, read-out: AVEw, weighted arithmetic mean of double-normalized Notch-reporter luciferase luminescence values (Activity Range)
Procedure: An according Notch-reporter assay, i.e. a luciferase-based luminescence readout, was used here to quantify the ability of the claimed small molecules to augment Notch signaling in a cellular system. For this purpose, HeLa cells, obtainable from the American Type Culture Collection (ATCC) under the accession number ATCC-CCL-2, were transiently transfected for 24 hours using FuGENE® HD (Promega, #E2311) as transfection reagent with expression vectors of a membrane-tethered form of the constitutively active intracellular domain of the human Notch1 receptor (hNotch1ΔE) to activate the signaling cascade (BPS Bioscience, human analogue to Notch Pathway Reporter Kit #60509 component C), a Firefly luciferase being expressed under the control of a Notch-responsive promoter to monitor Notch signaling (BPS Bioscience, Notch Pathway Reporter Kit #60509, CSL luciferase reporter vector from component A not premixed with Renilla luciferase vector), and a Renilla luciferase being constitutively expressed in a Notch signaling independent manner to include a measure for the cell number per sample (Promega, pRL-SV40, #E2231). HeLa cells were cultivated according to the protocol of the provider in DMEM medium (Fisherscientific, #11584456) containing 10% fetal bovine serum (Fisherscientific, #15517589). The transfection was carried out in a 100 mm-culture dish (StarLab, #CC7682-3394) with cells being properly attached to the plate at a cell confluency of 80-90% in a total volume of 7 mL culture medium. Per dish to be transfected, a transfection mix was prepared by adding to 238 μL Opti-MEM (Fisherscientific, #10149832) 40 μL of the hNotch1ΔE expression vector (100 ng/μL), 80 μL of the CSL luciferase reporter vector (40 ng/μL), 4 μL of the pRL-SV40-Renilla luciferase vector (10 ng/μL), and in the last step 18.1 μL of FuGENE® HD. After addition of FuGENE® HD the transfection mix was let stand for 15 min at room temperature and hereafter equally distributed into the culture dish. Subsequently, i.e. after 24 hours of transfection, the transfected cells (10.000 cells per well) were incubated with the test-compounds at a final concentration of 10 μM (diluted from 10 mM stock-solutions in DMSO to a final DMSO concentration of 0.1% v/v) or with the empty carrier DMSO at 0.1% v/v as control for 20 hours in 96-well plates suitable for luminescence readouts (CORNING, #3610). Hereafter, the cells were lysed with 30 μL per well of Passive Lysis Buffer (Promega, #E194A, component of Dual-Luciferase® Reporter Assay System, #E1910) and the Firefly as well as Renilla luciferase values were measured with a luminescence reader with applying 15 μL per well each of the corresponding enzyme substrates needed to create the luminescence signals (Promega, Dual-Luciferase® Reporter Assay System, #E1910).
The suitability of the assays for monitoring Notch signaling was controlled by additionally including a generally accepted commercial Notch inhibitor, i.e. DAPT, as negative control, as well as the reported Notch enhancer resveratrol (RES) as positive control (Pinchot et al., Cancer 2011, 117, 1386-1398; Truong et al., Ann. Surg. Oncol. 2011, 18, 1506-1511; Yu et al., Mol. Cancer Ther. 2013, 12, 1276-1287). Both control compounds were likewise tested at 10 μM.
Per single experiment the measurement was performed in six replicates per compound. For every compound, this experiment was repeated in three or more independent replicates. The values of the Notch-reporter luciferase were normalized by division through the corresponding individual Notch-independent Renilla values in order to eliminate the impact of variation in the absolute cell-numbers in between the samples. For every individual plate, a second normalization was performed against the equally weighted arithmetic mean (here abbreviated as AVE) of the six associated Renilla-normalized DMSO-control values within a single experiment in order to obtain the relative values to a baseline level of 1.0. […]

SMILES: CCCc1ccc(Oc2ccc(C(=O)O)cn2)cc1 [Compound 071, 6-(4-Propylphenoxy)nicotinic acid]
- fold induction at 10 µM: 1.4 to 1.7

SMILES: CCCc1ccc(Oc2ccc(C(=O)O)cc2)cc1 [Compound 003, 4-(4-propylphenoxy)benzoic acid]
- fold induction at 10 µM: 1.7 to 2

SMILES: CCCCc1ccc(Oc2ccc(C(=O)O)cc2)cc1 [Compound 004, 4-(4-butylphenoxy)benzoic acid]
- fold induction at 10 µM: 1.4 to 1.7

SMILES: CCCCc1ccc(Oc2ccc(C(=O)OC)cc2)cc1 [Compound 026, methyl 4-(4-butylphenoxy)benzoate]
- fold induction at 10 µM: 1.4 to 1.7

SMILES: CC(C)c1ccc(Oc2ccc(C(N)=O)cn2)cc1 [Compound 247, 6-(4-isopropylphenoxy)nicotinamide]
- fold induction at 10 µM: 1.2 to 1.3

SMILES: Cc1ccc(Oc2ccc(C(N)=O)cn2)cc1 [Compound 241, 6-(p-Tolyloxy)nicotinamide]
- fold induction at 10 µM: 1.2 to 1.3

SMILES: CCCCc1ccc(Oc2ccc(C(=O)OCC)cc2)cc1 [Compound 051, Ethyl 4-(4-butylphenoxy)benzoate]
- fold induction at 10 µM: 1.7 to 2

SMILES: CC(C)c1ccc(Oc2ccc(C(=O)O)cc2)cc1 [Compound 007, 4-(4-isopropylphenoxy)benzoic acid]
- fold induction at 10 µM: 1.2 to 1.3

SMILES: CCC(C)(C)c1ccc(Oc2ncc(C(=O)OC)cc2F)cc1 [Compound 451, Methyl 5-fluoro-6-(4-(tert-pentyl)phenoxy)nicotinate]
- fold induction at 10 µM: 1.1 to 1.2

SMILES: CCOC(=O)c1ccc(Oc2ccc(CC)cc2)nc1 [Compound 117, Ethyl 6-(4-Ethylphenoxy)nicotinate]
- fold induction at 10 µM: 1.4 to 1.7

SMILES: CCCCc1ccc(Oc2ccc(C(=O)O)cc2F)cc1 [Compound 344]
- fold induction at 10 µM: 1.3 to 1.4

SMILES: CNC(=O)c1ccc(Oc2ccc(C(C)C)cc2)cc1 [Compound 195, 4-(4-Isopropylphenoxy)-N-methylbenzamide]
- fold induction at 10 µM: 1.2 to 1.3

SMILES: CCCc1ccc(Oc2ccc(C(=O)OCC)cc2)cc1 [Compound 050, ethyl 4-(4-propylphenoxy)benzoate]
- fold induction at 10 µM: 1.4 to 1.7

SMILES: CCCCCc1ccc(Oc2ccc(C(=O)OCC)cc2F)cc1 [Compound 396, ethyl 3-fluoro-4-(4-pentylphenoxy)benzoate]
- fold induction at 10 µM: 1.2 to 1.3

SMILES: COC(=O)c1ccc(Oc2ccc(C34CC5CC(CC(C5)C3)C4)cc2)nc1 [Compound 114, Methyl 6-(4-(adamantan-1-yl)phenoxy)nicotinate]
- fold induction at 10 µM: 1.7 to 2

SMILES: CCCc1ccc(Oc2ccc(C(=O)OCC)cn2)cc1 [Compound 118, ethyl 6-(4-propylphenoxy)nicotinate]
- fold induction at 10 µM: 1.1 to 1.2

SMILES: CCOC(=O)c1ccc(Oc2ccc(C(C)C)cc2)nc1 [Compound 122, ethyl 6-(4-isopropylphenoxy)nicotinate]
- fold induction at 10 µM: 1.3 to 1.4

SMILES: CCCc1ccc(Oc2ccc(C(=O)OC)cc2)cc1 [Compound 025, methyl 4-(4-propylphenoxy)benzoate]
- fold induction at 10 µM: 1.2 to 1.3

SMILES: CCc1ccc(Oc2ccc(C(=O)NC)cn2)cc1 [Compound 292, 6-(4-ethylphenoxy)-N-mtehylnicotinamide]
- fold induction at 10 µM: 1.3 to 1.4

SMILES: CNC(=O)c1ccc(Oc2ccc(C(C)C)cc2)nc1 [Compound 297, 6-(4-Isopropylphenoxy)-N-methylnicotinamide]
- fold induction at 10 µM: 1.4 to 1.7

SMILES: C[C@H](NC(=O)Cc1cc(F)cc(F)c1)C(=O)N[C@H](C(=O)OC(C)(C)C)c1ccccc1 [DAPT, reference compound]
- AVEw, weighted arithmetic mean of double-normalized Notch-reporter luciferase luminescence values (Activity Range) (10 μM, relative to DMSO baseline level of 1.0): 0.1 ± 0.0

SMILES: CCCCCc1ccc(Oc2ccc(C(=O)OC)cc2)cc1 [Compound 027, methyl 4-(4-pentylphenoxy)benzoate]
- fold induction at 10 µM: 1.7 to 2

SMILES: COC(=O)c1ccc(Oc2ccc(C)cc2)nc1 [Compound 091, methyl 6-(p-tolyloxy)nicotinate]
- fold induction at 10 µM: 1.2 to 1.3

SMILES: CCCCCc1ccc(Oc2ccc(C(=O)OCC)cc2)cc1 [Compound 052, ethyl 4-(4-pentylphenoxy)benzoate]
- fold induction at 10 µM: 1.4 to 1.7

SMILES: CNC(=O)c1ccc(Oc2ccc(C)cc2)nc1 [Compound 291, N-methyl-6-(p-tolyloxy)nicotinamide]
- fold induction at 10 µM: 1.4 to 1.7

SMILES: O=C(O)c1ccc(Oc2ccc(C3C[C@@H]4CC[C@H]3C4)cc2)cc1 (stereo partly drawn) [Compound 019, 4-(4-((1S,4R)-bicyclo[2.2.1]heptan-2-yl)phenoxy)benzoic acid]
- fold induction at 10 µM: 1.2 to 1.3

SMILES: CCCCCc1ccc(Oc2ccc(C(=O)O)cc2)cc1 [Compound 005, 4-(4-Pentylphenoxy)benzoic acid]
- fold induction at 10 µM: 1.7 to 2

SMILES: O=C(O)c1ccc(Oc2ccc(C34CC5CC(CC(C5)C3)C4)cc2)c(F)c1 [Compound 363, 4-(4-((3r,5r,7r)-adamantan-1-yl)phenoxy)-3-fluorobenzoic acid]
- fold induction at 10 µM: 1.2 to 1.3

SMILES: CCCc1ccc(Oc2ccc(C(=O)O)cc2F)cc1 [Compound 343, 3-fluoro-4-(4-propylphenoxy)benzoic acid]
- fold induction at 10 µM: 1.1 to 1.2

SMILES: CCc1ccc(Oc2ccc(C(N)=O)cn2)cc1 [Compound 242, 6-(4-ethylphenoxy)nicotinamide]
- fold induction at 10 µM: 1.2 to 1.3

SMILES: CCCCCc1ccc(Oc2ccc(C(=O)OCC)cn2)cc1 [Compound 120, ethyl 6-(4-pentylphenoxy)nicotinate]
- fold induction at 10 µM: 1.4 to 1.7

SMILES: O=C(O)c1ccc(Oc2ccc(C3(C(F)(F)F)CC3)cc2)cc1 [Compound 703, 4-(4-(1-(Trifluoromethyl)cyclopropyl)phenoxy)benzoic acid]
- fold induction at 10 µM: 1.1 to 1.2

SMILES: CN(C)C(=O)c1ccc(Oc2ccc(C3CCCCC3)cc2)cc1 [Compound 234, 4-(4-cyclohexylphenoxy)-N,N-dimethylbenzamide]
- fold induction at 10 µM: 1.1 to 1.2

SMILES: O=C(O)c1ccc(Oc2ccc(C3(C(F)(F)F)CC3)cc2)nc1 [Compound 730, 6-(4-(1-(Trifluoromethyl)cyclopropyl)phenoxy)nicotinic acid]
- fold induction at 10 µM: 1.1 to 1.2

SMILES: CCCc1ccc(Oc2ccc(C(=O)OCC)cc2F)cc1 [Compound 394, ethyl 3-fluoro-4-(4-propylphenoxy)benzoate]
- fold induction at 10 µM: 1.4 to 1.7

SMILES: CNC(=O)c1ccc(Oc2ccc(C)cc2)cc1 [Compound 189, N-methyl-4-(p-tolyloxy)benzamide]
- fold induction at 10 µM: 1.1 to 1.2
